This note sets out measurements from patent US20160130278A1 (TAISHO PHARMACEUTICAL CO., LTD, priority 2013, published 2016).

The target of the test is T1, human type 1 glycine transporter (GlyT1) (Homo sapiens, UniProt P48067).
T1 construct: T98G cells (glioma cells) expressing human type 1 glycine transporter (GlyT1) were used
T1 sequence (P48067 1-706): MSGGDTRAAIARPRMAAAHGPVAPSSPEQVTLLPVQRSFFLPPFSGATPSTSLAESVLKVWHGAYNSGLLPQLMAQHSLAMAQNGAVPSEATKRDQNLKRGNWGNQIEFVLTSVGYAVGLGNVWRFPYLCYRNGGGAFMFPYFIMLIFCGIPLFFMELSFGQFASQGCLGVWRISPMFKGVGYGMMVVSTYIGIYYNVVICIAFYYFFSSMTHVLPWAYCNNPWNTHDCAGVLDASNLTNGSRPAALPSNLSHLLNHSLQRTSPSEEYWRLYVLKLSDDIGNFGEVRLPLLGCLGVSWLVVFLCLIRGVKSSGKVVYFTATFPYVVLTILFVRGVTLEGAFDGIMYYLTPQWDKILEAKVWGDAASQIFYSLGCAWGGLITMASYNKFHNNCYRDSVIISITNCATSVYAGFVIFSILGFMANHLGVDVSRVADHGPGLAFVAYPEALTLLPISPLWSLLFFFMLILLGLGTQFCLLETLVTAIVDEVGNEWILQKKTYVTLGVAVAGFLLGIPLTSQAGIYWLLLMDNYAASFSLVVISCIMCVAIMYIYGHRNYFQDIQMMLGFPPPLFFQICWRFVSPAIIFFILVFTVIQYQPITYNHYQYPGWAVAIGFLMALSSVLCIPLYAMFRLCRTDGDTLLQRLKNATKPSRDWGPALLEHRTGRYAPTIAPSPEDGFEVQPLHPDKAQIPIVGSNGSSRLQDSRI
Description: Glycine uptake inhibition experiment ([3H]glycine uptake). The class given is cell-based. The conditions noted are these: GlyT1. As to the method:
Glycine Uptake Inhibition Experiment
A glycine uptake experiment was conducted in accordance with the method published in Neuron, 8, 927-935, 1992. In the experiment, T98G cells (glioma cells) expressing human type 1 glycine transporter (GlyT1) were used. The T98G cells were seeded in a 96-well plate at 2.0×10^4 cells/well and cultured overnight in a CO2 incubator. The test substance was dissolved in a 100% DMSO solution and then dissolved in a 10 mM HEPES buffer solution (pH 7.4) containing 150 mM sodium chloride, 1 mM calcium chloride, 5 mM potassium chloride, 1 mM magnesium chloride, 10 mM glucose and 0.2% bovine serum albumin. After removing the cell culture medium, the test substance was subjected to a 10-min pretreatment. Subsequently, the test substance and [^3H] glycine (final concentration: 250 nM) were added to the cells and reaction was performed at room temperature for 15 minutes. After the end of the reaction, the extracellular fluid was aspirated with a manifold to remove excess labeled glycine present outside the cells, and then the cells were lysed with a 0.5 M aqueous sodium hydroxide solution. The glycine content in the cells was determined by measuring the radioactivity in the cell lysate with a liquid scintillation counter. Glycine uptake in the presence of 10 μM ALX5407 was defined as non-specific uptake, and the value calculated by subtracting the amount of the non-specific uptake from the total uptake in the absence of 10 μM ALX5407 was defined as specific uptake. In addition, glycine uptake inhibitory activity (IC50 value) was calculated from an inhibition curve at the concentrations of each test substance ranging from 10^−9 to 10^−5 M. It should be noted that ALX5407 is an HCl salt of N-[(3R)-3-([1,1′-biphenyl]-4-yloxy)-3-(4-fluorophenyl)propyl]-N-methylglycine.
A word on the IC50: it is the midpoint of a concentration-inhibition curve. Read a high IC50 as lower potency. `O=C(NC(c1cccc(F)c1)C1(O)CCC(F)(F)CC1)c1nccc(C(F)(F)F)c1Cl` (single isomer, unassigned) [Compound 76, 3-chloro-N-[(4,4-difluoro-1-hydroxycyclohexyl)(3-fluorophenyl)methyl]-4-(trifluoromethyl)pyridine-2-carboxamide] had a concentration for half-maximal inhibition (IC50) of 250 nM. In other words, the sub-micromolar range.
Molecule `O=C(NC(c1cccc(F)c1)C1(O)CCC(F)(F)CC1)c1nccc(C(F)(F)F)c1Cl` (single isomer, unassigned) [Compound 77, 3-chloro-N-[(4,4-difluoro-1-hydroxycyclohexyl)(3-fluorophenyl)methyl]-4-(trifluoromethyl)pyridine-2-carboxamide] registered an IC50 of 1200 nM. This IC50 lies about 4.8-fold higher than the previous one.
The value for `O=C(NC(c1cccc(-n2cccn2)c1)C1(O)CCCC1)c1nccc(C(F)(F)F)c1Cl` (single isomer, unassigned) [Compound 82, 3-chloro-N-{(1-hydroxycyclopentyl)[3-(1H-pyrazol-1-yl)phenyl]methyl}-4-(trifluoromethyl)pyridine-2-carboxamide] was 89 nM; that for `O=C(NC(c1cccc(-n2cccn2)c1)C1(O)CCCC1)c1nccc(C(F)(F)F)c1Cl` (single isomer, unassigned) [Compound 83, 3-chloro-N-{(1-hydroxycyclopentyl)[3-(1H-pyrazol-1-yl)phenyl]methyl}-4-(trifluoromethyl)pyridine-2-carboxamide] was 3900 nM.
Take `O=C(NC(c1cccc(Br)c1)C1(O)CCC(F)(F)CC1)c1nccc(C(F)(F)F)c1Cl` (single isomer, unassigned) [Compound 89, N-[(3-bromophenyl)(4,4-difluoro-1-hydroxycyclohexyl)methyl]-3-chloro-4-(trifluoromethyl)pyridine-2-carboxamide]: the half-maximal inhibitory concentration (IC50) is 1100 nM.
The value for `O=C(NC(c1cccc(Br)c1)C1(O)CCC(F)(F)CC1)c1nccc(C(F)(F)F)c1Cl` (single isomer, unassigned) [Compound 90, N-[(3-bromophenyl)(4,4-difluoro-1-hydroxycyclohexyl)methyl]-3-chloro-4-(trifluoromethyl)pyridine-2-carboxamide] was 300 nM; that for `CCn1cc(-c2cccc(C(NC(=O)c3nccc(C(F)(F)F)c3Cl)C3(O)CCC(F)(F)CC3)c2)cn1` (single isomer, unassigned) [Compound 91, 3-chloro-N-{(4,4-difluoro-1-hydroxycyclohexyl)[3-(1-ethyl-1H-pyrazol-4-yl)phenyl]methyl}-4-(trifluoromethyl)pyridine-2-carboxamide] was 3800 nM; that for `CCn1cc(-c2cccc(C(NC(=O)c3nccc(C(F)(F)F)c3Cl)C3(O)CCC(F)(F)CC3)c2)cn1` (single isomer, unassigned) [Compound 92, 3-chloro-N-{(4,4-difluoro-1-hydroxycyclohexyl)[3-(1-ethyl-1H-pyrazol-4-yl)phenyl]methyl}-4-(trifluoromethyl)pyridine-2-carboxamide] was 27 nM.
The value for `O=C(NC(c1cc(F)cc(Cl)c1)C1(O)CCCC1)c1nccc(C(F)(F)F)c1Cl` (single isomer, unassigned) [Compound 94, 3-chloro-N-[(3-chloro-5-fluorophenyl)(1-hydroxycyclopentyl)methyl]-4-(trifluoromethyl)pyridine-2-carboxamide] was 110 nM; that for `O=C(NC(c1ccc(F)c(Cl)c1)C1(O)CCCC1)c1nccc(C(F)(F)F)c1Cl` (single isomer, unassigned) [Compound 97, 3-chloro-N-[(3-chloro-4-fluorophenyl)(1-hydroxycyclopentyl)methyl]-4-(trifluoromethyl)pyridine-2-carboxamide] was 270 nM.
`O=C(NC(c1ccc(F)cc1Cl)C1(O)CCCC1)c1nccc(C(F)(F)F)c1Cl` (single isomer, unassigned) [Compound 99, 3-chloro-N-[(2-chloro-4-fluorophenyl)(1-hydroxycyclopentyl)methyl]-4-(trifluoromethyl)pyridine-2-carboxamide]: the IC50 was 5200 nM. This IC50 lies about 19-fold higher than the previous one.
The value for `O=C(NC(c1ccc(F)cc1Cl)C1(O)CCCC1)c1nccc(C(F)(F)F)c1Cl` (single isomer, unassigned) [Compound 100, 3-chloro-N-[(2-chloro-4-fluorophenyl)(1-hydroxycyclopentyl)methyl]-4-(trifluoromethyl)pyridine-2-carboxamide] was 59 nM; that for `O=C(NC(c1cc(Cl)ccc1Cl)C1(O)CCCC1)c1nccc(C(F)(F)F)c1Cl` (single isomer, unassigned) [Compound 113, 3-chloro-N-[(2,5-dichlorophenyl)(1-hydroxycyclopentyl)methyl]-4-(trifluoromethyl)pyridine-2-carboxamide] was 1700 nM.
`O=C(NC(c1cc(Cl)ccc1Cl)C1(O)CCCC1)c1nccc(C(F)(F)F)c1Cl` (single isomer, unassigned) [Compound 114, 3-chloro-N-[(2,5-dichlorophenyl)(1-hydroxycyclopentyl)methyl]-4-(trifluoromethyl)pyridine-2-carboxamide] had a concentration for half-maximal inhibition (IC50) of 65 nM.
The value for `O=C(NC(c1cc(Cl)cc(Cl)c1)C1(O)CCCC1)c1nccc(C(F)(F)F)c1Cl` (single isomer, unassigned) [Compound 115, 3-chloro-N-[(3,5-dichlorophenyl)(1-hydroxycyclopentyl)methyl]-4-(trifluoromethyl)pyridine-2-carboxamide] was 59 nM.
In turn, `O=C(NC(c1cccc(Cl)c1Cl)C1(O)CCCC1)c1nccc(C(F)(F)F)c1Cl` (single isomer, unassigned) [Compound 116, 3-chloro-N-[(2,3-dichlorophenyl)(1-hydroxycyclopentyl)methyl]-4-(trifluoromethyl)pyridine-2-carboxamide] yielded a half-inhibitory concentration (IC50) of 6000 nM.
In turn, `O=C(NC(c1cccc(Cl)c1Cl)C1(O)CCCC1)c1nccc(C(F)(F)F)c1Cl` (single isomer, unassigned) [Compound 117, 3-chloro-N-[(2,3-dichlorophenyl)(1-hydroxycyclopentyl)methyl]-4-(trifluoromethyl)pyridine-2-carboxamide] displayed an IC50 of 29 nM.
For the molecule `CCn1cc(-c2cccc(C(NC(=O)c3cccc(C(F)(F)F)c3Cl)C3(O)CCC(F)(F)CC3)c2)cn1` (single isomer, unassigned) [Compound 121, 2-chloro-N-{(4,4-difluoro-1-hydroxycyclohexyl)[3-(1-ethyl-1H-pyrazol-4-yl)phenyl]methyl}-3-(trifluoromethyl)benzamide], the IC50 is 7400 nM. Compared with the last molecule, the IC50 is about 260-fold higher.
The value for `CCn1cc(-c2cccc(C(NC(=O)c3cccc(C(F)(F)F)c3Cl)C3(O)CCC(F)(F)CC3)c2)cn1` (single isomer, unassigned) [Compound 122, 2-chloro-N-{(4,4-difluoro-1-hydroxycyclohexyl)[3-(1-ethyl-1H-pyrazol-4-yl)phenyl]methyl}-3-(trifluoromethyl)benzamide] was 220 nM.
Regarding `CC(C)n1cc(-c2cccc(C(NC(=O)c3nccc(C(F)(F)F)c3Cl)C3(O)CCC(F)(F)CC3)c2)cn1` (single isomer, unassigned) [Compound 133, 3-chloro-N-[(4,4-difluoro-1-hydroxycyclohexyl){3-[1-(propan-2-yl)-1H-pyrazol-4-yl]phenyl}methyl]-4-(trifluoromethyl)pyridine-2-carboxamide], the half-maximal inhibitory concentration (IC50) was 3500 nM.
The value for `CC(C)n1cc(-c2cccc(C(NC(=O)c3nccc(C(F)(F)F)c3Cl)C3(O)CCC(F)(F)CC3)c2)cn1` (single isomer, unassigned) [Compound 134, 3-chloro-N-[(4,4-difluoro-1-hydroxycyclohexyl){3-[1-(propan-2-yl)-1H-pyrazol-4-yl]phenyl}methyl]-4-(trifluoromethyl)pyridine-2-carboxamide] was 31 nM.
